Values quoted from earlier work as cited in PubChem BioAssay AID1259409 (Chemical Carcinogenesis Research Information System (CCRIS), 2018).

Test system: rodent chemically induced tumor inhibition, incidence and multiplicity
Assay: CCRIS tumor inhibitor studies

## CC1=C(/C=C/C(C)=C/C=C/C(C)=C/C=C/C=C(C)/C=C/C=C(C)/C=C/C2=C(C)CCCC2(C)C)C(C)(C)CCC1
Carcinogen: DIESEL EXHAUST PARTICLES, Dose [Inhibitor]: 0, 0.02% IN HIGH FAT DIET FOR DURATION OF STUDY (STUDY DURATION: 12 MO), Route [Inhibitor]: ORAL, Species: MOUSE, Strain/Sex: ICR/MALE, Target Tissue: Type of Lesion: LUNG: TUMOR, Dose [Carcinogen]: 0.1 MG 1/WK FOR 10 WK, Promoter: NONE USED
  tumour outcome (control, treated, inhibition, significance): 13/30 (43%), 5/30 (17%), 60%, not calculated
Carcinogen: DIESEL EXHAUST PARTICLES, Dose [Inhibitor]: 0, 0.02% IN HIGH FAT DIET FOR DURATION OF STUDY (STUDY DURATION: 12 MO), Route [Inhibitor]: ORAL, Species: MOUSE, Strain/Sex: ICR/MALE, Target Tissue: Type of Lesion: LUNG: TUMOR, Dose [Carcinogen]: 0.2 MG 1/WK FOR 10 WK, Promoter: NONE USED
  tumour outcome (control, treated, inhibition, significance): 7/29 (24%), 11/29 (38%), -58%, not calculated
Carcinogen: DIESEL EXHAUST PARTICLES, Dose [Inhibitor]: 0, 0.02% IN HIGH FAT DIET FOR DURATION OF STUDY (STUDY DURATION: 12 MO), Route [Inhibitor]: ORAL, Species: MOUSE, Strain/Sex: ICR/MALE, Target Tissue: Type of Lesion: LYMPHATIC SYSTEM: LYMPHOMA, Dose [Carcinogen]: 0.1 MG 1/WK FOR 10 WK, Promoter: NONE USED
  tumour outcome (control, treated, inhibition, significance): 3/30 (10%), 9/30 (30%), -200%, not calculated
Carcinogen: DIESEL EXHAUST PARTICLES, Dose [Inhibitor]: 0, 0.02% IN HIGH FAT DIET FOR DURATION OF STUDY (STUDY DURATION: 12 MO), Route [Inhibitor]: ORAL, Species: MOUSE, Strain/Sex: ICR/MALE, Target Tissue: Type of Lesion: LYMPHATIC SYSTEM: LYMPHOMA, Dose [Carcinogen]: 0.2 MG 1/WK FOR 10 WK, Promoter: NONE USED
  tumour outcome (control, treated, inhibition, significance): 8/29 (28%), 4/29 (14%), 50%, not calculated
Carcinogen: DIETHYLNITROSAMINE, 55-18-5, Dose [Inhibitor]: 0, 0.005% IN DIET FOR DURATION OF STUDY (STUDY DURATION: 13 WKS), Route [Inhibitor]: ORAL, Species: HAMSTER, Strain/Sex: SYRIAN/MALE, Target Tissue: Type of Lesion: LARYNX/TRACHEA: PAPILLOMA, Dose [Carcinogen]: 100 MG/KG BW ONCE, Promoter: CIGARETTE SMOKE
  tumour outcome (control, treated, inhibition, significance): 13/28 (46%), 10/28 (36%), 22%, not significant
Carcinogen: DIETHYLNITROSAMINE, 55-18-5, Dose [Inhibitor]: 0, 0.05% IN DIET FOR DURATION OF STUDY (STUDY DURATION: 13 WKS), Route [Inhibitor]: ORAL, Species: HAMSTER, Strain/Sex: SYRIAN/MALE, Target Tissue: Type of Lesion: LARYNX/TRACHEA: PAPILLOMA, Dose [Carcinogen]: 100 MG/KG BW ONCE, Promoter: CIGARETTE SMOKE
  tumour outcome (control, treated, inhibition, significance): 13/28 (46%), 11/29 (38%), 17%, not significant
Carcinogen: DIETHYLNITROSAMINE, 55-18-5, Dose [Inhibitor]: 0, 0.5% IN DIET FOR 10 D THEN REDUCED TO 0.25% FOR DURATION OF STUDY (STUDY DURATION: 13 WKS), Route [Inhibitor]: ORAL, Species: HAMSTER, Strain/Sex: SYRIAN/MALE, Target Tissue: Type of Lesion: LARYNX/TRACHEA: PAPILLOMA, Dose [Carcinogen]: 100 MG/KG BW ONCE, Promoter: CIGARETTE SMOKE
  tumour outcome (control, treated, inhibition, significance): 13/28 (46%), 4/26 (15%), 67%, p< 0.05
Carcinogen: DIETHYLNITROSAMINE, 55-18-5, Dose [Inhibitor]: 0, 1.5 MG 2/WK FOR 20 WK (STUDY DURATION: 25 WK), Route [Inhibitor]: SUBCUTANEOUS, Species: HAMSTER, Strain/Sex: SYRIAN/MALE, Target Tissue: Type of Lesion: LUNG: CARCINOMA, Dose [Carcinogen]: 17.8 MG/KG BW 2/WK FOR 20 WK, Promoter: NONE USED
  tumour outcome (control, treated, inhibition, significance): 50%, 26%, 48%, not significant
Carcinogen: DIETHYLNITROSAMINE, 55-18-5, Dose [Inhibitor]: 0, 1.5 MG 2/WK FOR 20 WK (STUDY DURATION: 25 WK), Route [Inhibitor]: SUBCUTANEOUS, Species: HAMSTER, Strain/Sex: SYRIAN/MALE, Target Tissue: Type of Lesion: TRACHEA: PAPILLOMA, Dose [Carcinogen]: 17.8 MG/KG BW 2/WK FOR 20 WK, Promoter: NONE USED
  tumour outcome (control, treated, inhibition, significance): 95%, 100%, -5%, not significant
Carcinogen: DIETHYLNITROSAMINE, 55-18-5, Dose [Inhibitor]: 0, 3 MG 2/WK FOR 20 WK (STUDY DURATION: 25 WK), Route [Inhibitor]: SUBCUTANEOUS, Species: HAMSTER, Strain/Sex: SYRIAN/MALE, Target Tissue: Type of Lesion: LUNG: CARCINOMA, Dose [Carcinogen]: 17.8 MG/KG BW 2/WK FOR 20 WK, Promoter: NONE USED
  tumour outcome (control, treated, inhibition, significance): 60%, 30%, 50%, not significant
Carcinogen: DIETHYLNITROSAMINE, 55-18-5, Dose [Inhibitor]: 0, 3 MG 2/WK FOR 20 WK (STUDY DURATION: 25 WK), Route [Inhibitor]: SUBCUTANEOUS, Species: HAMSTER, Strain/Sex: SYRIAN/MALE, Target Tissue: Type of Lesion: TRACHEA: PAPILLOMA, Dose [Carcinogen]: 17.8 MG/KG BW 2/WK FOR 20 WK, Promoter: NONE USED
  tumour outcome (control, treated, inhibition, significance): 100%, 100%, 0%, not significant
Carcinogen: DIMETHYLBENZ[A]ANTHRACENE, 57-97-6, Dose [Inhibitor]: 0.25 ML OF 0.015% AGENT IN ACETONE ADMINISTERED WITH PROMOTER 5/WK FOR 16 WK BEGINNING 3 WK POST CARCINOGEN DOSE (STUDY, Route [Inhibitor]: DERMAL, Species: MOUSE, Strain/Sex: ICR/FEMALE, Target Tissue: Type of Lesion: SKIN: PAPILLOMA, Dose [Carcinogen]: 0.125 MG IN 0.25 ML ACETONE ONCE, Promoter: PHENOL, 108-95-2
  tumour outcome (control, treated, inhibition, significance): 7/25 (28%), 6/28 (21%), 25%, not calculated
Carcinogen: DIMETHYLBENZ[A]ANTHRACENE, 57-97-6, Dose [Inhibitor]: 100 MG/KG OF DIET IMMEDIATELY FOLLOWING CARCINOGEN DOSE FOR 22 WK (STUDY DURATION: 22 WK), Route [Inhibitor]: ORAL, Species: RAT, Strain/Sex: SPRAGUE-DAWLEY/MALE, Target Tissue: Type of Lesion: SALIVARY GLAND: TUMOR, Dose [Carcinogen]: 1 MG IN OLIVE OIL INJECTED INTO ONE SALIVARY GLAND ONCE, Promoter: NONE USED
  tumour outcome (control, treated, inhibition, significance): 3/9 (33%), 1/11 (9%), 73%, not significant
Carcinogen: METHYL(ACETOXYMETHYL)NITROSAMINE, 56856-83-8, Dose [Inhibitor]: 0, 5.8 NMOL IN DRINKING WATER BEGINNING 2 WK PRIOR TO CARCINOGEN AND CONTINUED FOR STUDY DURATION, (STUDY DURATION: 13 M, Dose [Inhibitor]: 0, 5.8 NMOL IN DRINKING WATER BEGINNING 2 WK PRIOR TO CARCINOGEN AND CONTINUED FOR STUDY DURATION, (STUDY DURATION: 13 M, Route [Inhibitor]: ORAL, Species: HAMSTER, Strain/Sex: SYRIAN/FEMALE, Target Tissue: Type of Lesion: ORAL CAVITY: TUMOR, Dose [Carcinogen]: 2 MG/KG BW IN DISTILLED WATER TO RIGHT CHEEK POUCH 2/MO FOR 6 MO (TOTAL DOSE 24 MG/KG), Promoter: NONE USED
  tumour outcome (control, treated, inhibition, significance): 14/15 (93%), 4/15 (27%), 71%, p<0.001
Carcinogen: N-BUTYL-N-(4-HYDROXYBUTYL)NITROSAMINE, 3817-11-6, Dose [Inhibitor]: 0, 0.0025% IN DRINKING WATER FOR 12 WK BEGINNING POST CARCINOGEN TREATMENT (STUDY DURATION: 20 WK), Route [Inhibitor]: ORAL, Species: RAT, Strain/Sex: F344/MALE, Target Tissue: Type of Lesion: URINARY BLADDER: TRANSITIONAL CELL CARCINOMA, Dose [Carcinogen]: 0.05% IN DRINKING WATER FOR 8 WK, Promoter: NONE USED
  tumour outcome (control, treated, inhibition, significance): 10/12 (83%), 12/12 (100%), -20%, not significant
Carcinogen: N-BUTYL-N-(4-HYDROXYBUTYL)NITROSAMINE, 3817-11-6, Dose [Inhibitor]: 0, 0.1% IN DIET BEGINNING 5 WK PRIOR TO CARCINOGEN TREATMENT AND CONTINUING FOR DURATION OF STUDY (STUDY DURATION: 7 MO), Route [Inhibitor]: ORAL, Species: MOUSE, Strain/Sex: B6D2F1/MALE, Target Tissue: Type of Lesion: BLADDER: CARCINOMA IN SITU, Dose [Carcinogen]: 5 MG IN SALINE SOLUTION 2/WK FOR 9 WK, Promoter: NONE USED
  tumour outcome (control, treated, inhibition, significance): 7/24 (29%), 3/24 (13%), 55%, not calculated
Carcinogen: N-BUTYL-N-(4-HYDROXYBUTYL)NITROSAMINE, 3817-11-6, Dose [Inhibitor]: 0, 0.1% IN DIET BEGINNING 5 WK PRIOR TO CARCINOGEN TREATMENT AND CONTINUING FOR DURATION OF STUDY (STUDY DURATION: 7 MO), Route [Inhibitor]: ORAL, Species: MOUSE, Strain/Sex: B6D2F1/MALE, Target Tissue: Type of Lesion: BLADDER: TRANSITIONAL CELL CARCINOMA, Dose [Carcinogen]: 5 MG IN SALINE SOLUTION 2/WK FOR 9 WK, Promoter: NONE USED
  tumour outcome (control, treated, inhibition, significance): 8/24 (33%), 5/24 (21%), 36%, not calculated
Carcinogen: N-BUTYL-N-(4-HYDROXYBUTYL)NITROSAMINE, 3817-11-6, Dose [Inhibitor]: 0, 0.1% IN DIET BEGINNING 5 WK PRIOR TO CARCINOGEN TREATMENT AND CONTINUING FOR DURATION OF STUDY (STUDY DURATION: 7 MO), Route [Inhibitor]: ORAL, Species: MOUSE, Strain/Sex: B6D2F1/MALE, Target Tissue: Type of Lesion: BLADDER: TUMOR, Dose [Carcinogen]: 5 MG IN SALINE SOLUTION 2/WK FOR 9 WK, Promoter: NONE USED
  tumour outcome (control, treated, inhibition, significance): 15/24 (63%), 8/24 (33%), 48%, p<0.05
